Experimental findings from article PMC9597602, “Metal Complexes as Antifungals? From a Crowd-Sourced Compound Library to the First In Vivo Experiments” (JACS Au, 2022) are described below.

Series [1] deals with HEK-293 human embryonic kidney cells ATCC CRL-1573. Conditions: initial CO-ADD screening, 20 h; for CC50: read-out: HEK CC50. On the procedure:
The cells were incubated together with the compounds for 20 h at 37 °C in 5% CO2. […] Tamoxifen (Sigma T5648) was used as internal control on each plate.

The subject of series [2] is Cryptococcus neoformans H99 ATCC 208821 type strain. Put plainly: Antifungal MIC assay. Conditions: initial CO-ADD dose-response screening; ≥80% growth inhibition. The class given is cell-based. The procedure:
(§1) For the fungal assays, both fungi (yeast) strains were cultured for 3 days on Yeast Extract-Peptone Dextrose (YPD; Becton Dickinson 242720) agar at 30 °C. A yeast suspension of 1 × 10^6 to 5 × 10^6 CFU/mL (as determined by OD530) was prepared from five colonies from the agar plates, subsequently diluted with Yeast Nitrogen Base media (YNB; Becton Dickinson 233520), and added to each well of the compound containing plates (384-well plates, NBS; Corning CLS3640), giving a final cell density of 2.5 × 10^3 CFU/mL and a total volume of 50 μL. Plates were covered and incubated at 35 °C for 36 h without shaking. […] MIC values were recorded as the lowest concentration at which the growth was inhibited by ≥80%, equivalent to ″optically clear-to-slightly hazy″ or MIC score of 0–1 as per CLSI guidelines M27 Reference Method for Broth Dilution Antifungal Susceptibility Testing of Yeasts. […] Fluconazole (Sigma F8929) was used as internal control on each plate for all strains. All compounds were tested as two technical replicates in two to four independent biological assays, n = 4–8 final data.

Series [3] deals with Acinetobacter baumannii ATCC 19606 type strain. The series can be described thus: CO-ADD antibacterial MIC assay. The format is cell-based. The following applies: initial CO-ADD dose-response screening; ≥80% growth inhibition. The procedure:
(§2) For the all the bacterial assays, each bacterial strain was cultured in cation-adjusted Mueller Hinton broth (CAMHB; Bacto Laboratories 212322) at 37 °C overnight. A sample of each culture was then diluted 40-fold in fresh CAMHB and incubated at 37 °C for 1.5–3 h. The resultant mid-log phase cultures were diluted with CAMHB (CFU/mL measured by OD600) and then added to each well of the compound-containing plates (384-well non-binding surface (NBS) plates; Corning CLS3640), giving a cell density of 5 × 10^5 CFU/mL and a total volume of 50 μL. Plates were covered and incubated at 37 °C for 18 h without shaking. Inhibition of bacterial growth was determined by measuring the absorbance at 600 nm (OD600) using media only as negative control and bacteria without inhibitors as positive control. MIC values were determined as the lowest concentration at which the growth was inhibited by ≥80% (equivalent to no visible growth by the eye). Colistin sulfate (Sigma C4461) and vancomycin HCl (Sigma 861987) were used as internal controls on each plate for Gram-negative and Gram-positive bacteria, respectively. All compounds were tested as two technical replicates in two independent biological assays, n = 4 final data.

The test system of series [4] is Pseudomonas aeruginosa ATCC 27853 QC control strain. Put plainly: CO-ADD antibacterial MIC assay. The format is cell-based. The following applies: initial CO-ADD dose-response screening; ≥80% growth inhibition. The procedure:
as §2

The test system of series [5] is methicillin-resistant Staphylococcus aureus ATCC 43300. Put plainly: CO-ADD antibacterial MIC assay. The class given is cell-based. Conditions: initial CO-ADD dose-response screening; ≥80% growth inhibition. The procedure: as §2
Series [6] concerns Escherichia coli ATCC 25922 FDA control strain. The series can be described thus: CO-ADD antibacterial MIC assay. The class given is cell-based. The following applies: initial CO-ADD dose-response screening; ≥80% growth inhibition. On the procedure:
as §2

The next series concerns human red blood cells. The format is cell-based. The following applies: initial CO-ADD screening, 1 h; 10% hemolysis. The procedure:
Human whole blood (Australian Red Cross) was washed three times with 3 vol of 0.9% NaCl and resuspended in a concentration of 0.5 × 10^8 cells/mL, determined by a manual cell count in a Neubauer hemocytometer. […] After incubation, the plates were centrifuged at 1000g for 10 min to pellet cells and debris; 25 μL of the supernatant was then transferred to reading plates (384-well, polystyrene plated (PS), Corning CLS3680), with hemolysis determined by measuring the supernatant absorbance at […] (OD405) using cells without inhibitors as negative control and cells with 1% Triton X-100 (Sigma T8787) as positive control. […] Melittin (Sigma M2272) was used as internal control on each plate.

The subject of series [7] is Candida albicans ATCC 90028 NCCLS11. The series can be described thus: Antifungal MIC assay. The format is cell-based. Conditions: initial CO-ADD dose-response screening; ≥80% growth inhibition. The procedure: as §1, with “[…],” for “MIC values were recorded as the lowest concentration at which the growth was inhibited by ≥80%,”

Regarding `Cc1cccc(C2(c3ccccc3)[C]([Au-][Cl])=C(C(C)(C)C)c3cccc(C)[n+]32)n1` (stereo not drawn) [Au-S15], the “HEK CC50” value in series [1] is greater than 32 µg/mL. Further, the “MIC Cn” value in series [2] is “<= 0.25 μg/mL”. Also, the “MIC Ab” value in series [3] came out at 32 µg/mL. In series [4], the “MIC Pa” value was 32 µg/mL. Besides, the “MIC MRSA (Sa)” value in series [5] was 2 µg/mL. For the same compound, in series [6], the “MIC Ec” value was greater than 32 µg/mL. Besides, the “RBC HC10” value in the series on human red blood cells was greater than 32 µg/mL. Also, the “MIC Ca” value in series [7] is “<= 0.25 μg/mL”.

`Nc1cc2cccnc2c2ncccc12.O=C([O][Eu]([O]C(=O)c1ccccc1F)[O]C(=O)c1ccccc1F)c1ccccc1F` [Eu-S4]: the CC50 (commonly the concentration giving 50% cytotoxicity) in series [1] worked out at 3.3 µM. Also, the “MIC Cn” value in series [2] was 20 µM. The “MIC Ab” value in series [3] is greater than 20 µM. In series [4], the “MIC Pa” value was greater than 20 µM. Also, the “MIC MRSA (Sa)” value in series [5] is greater than 20 µM. For the same compound, the “MIC Ec” value in series [6] is greater than 20 µM. In the series on human red blood cells, the “RBC HC10” value worked out at 1.2 µM. Moreover, the “MIC Ca” value in series [7] is greater than 20 µM.

For the compound `CC1=CC=CC2=C(c3ccccc3)[C](=[Au]([Cl])([Cl])[Cl])C(c3ccccc3)(c3cccc(C)n3)N12` (stereo not drawn) [Au-S13], in series [1], the “HEK CC50” value was greater than 32 µg/mL. Moreover, the “MIC Cn” value in series [2] is reported as “<= 0.25 μg/mL”. Moreover, the “MIC Ab” value in series [3] came out at 32 µg/mL. In addition, the “MIC Pa” value in series [4] is greater than 32 µg/mL. In addition, the “MIC MRSA (Sa)” value in series [5] was “<= 0.25 μg/mL”. Further, the “MIC Ec” value in series [6] was 16 µg/mL. In the series on human red blood cells, the “RBC HC10” value came out at 19.3 µg/mL. Besides, in series [7], the “MIC Ca” value stood at 2 µg/mL.

With `Cc1cccc2[n+]1[Au-]([Cl])([Cl])[n+]1c(C)cccc1C(c1ccccc1)=C=C2c1ccccc1.[Cl-]` [Au-S11], the “HEK CC50” value in series [1] was greater than 32 µg/mL. Further, in series [2], the “MIC Cn” value turned out to be 16 µg/mL. In series [3], the “MIC Ab” value was greater than 32 µg/mL. Also, the “MIC Pa” value in series [4] was greater than 32 µg/mL. Moreover, the “MIC MRSA (Sa)” value in series [5] worked out at 16 µg/mL. For the same compound, the “MIC Ec” value in series [6] was found to be 32 µg/mL. The “RBC HC10” value with human red blood cells is greater than 32 µg/mL. The “MIC Ca” value in series [7] turned out to be 4 µg/mL.

In the case of `O=C([O][Eu]([O]C(=O)c1cc(F)ccc1F)[O]C(=O)c1cc(F)ccc1F)c1cc(F)ccc1F.c1ccc(-c2ccnc3c2ccc2c(-c4ccccc4)ccnc23)cc1` [Eu-S1], the 50% cytotoxic concentration (CC50) in series [1] was greater than 20 µM. In addition, in series [2], the “MIC Cn” value came out at 5 µM. In series [3], the “MIC Ab” value is greater than 20 µM. The “MIC Pa” value in series [4] was greater than 20 µM. In addition, the “MIC MRSA (Sa)” value in series [5] was 10 µM. For the same compound, the “MIC Ec” value in series [6] is greater than 20 µM. Besides, the “RBC HC10” value in the series with human red blood cells was greater than 20 µM. Besides, the “MIC Ca” value in series [7] is greater than 20 µM.

With `Cc1cccc(C(=C=C(c2cccc(C)n2)C(C)(C)C)c2ccccc2)n1.[Cl][Pt]([Cl])([Cl])[Cl]` [HM_C5], the “HEK CC50” value in series [1] was greater than 32 µg/mL. Also, in series [2], the “MIC Cn” value was greater than 32 µg/mL. In addition, the “MIC Ab” value in series [3] is greater than 32 µg/mL. Also, the “MIC Pa” value in series [4] is greater than 32 µg/mL. The “MIC MRSA (Sa)” value in series [5] was greater than 32 µg/mL. For the same compound, the “MIC Ec” value in series [6] was greater than 32 µg/mL. Further, the “RBC HC10” value in the series with human red blood cells was greater than 32 µg/mL. In addition, the “MIC Ca” value in series [7] came out at 32 µg/mL.

Regarding `Cc1cccc2[n+]1[Pd-2]([Cl])([Cl])[n+]1c(C)cccc1C(c1ccccc1)=C=C2c1ccccc1` [HM_C1], the “HEK CC50” value in series [1] came to 1.0 µg/mL. Moreover, in series [2], the “MIC Cn” value was 1 µg/mL. Also, the “MIC Ab” value in series [3] was greater than 32 µg/mL. Further, the “MIC Pa” value in series [4] is greater than 32 µg/mL. The “MIC MRSA (Sa)” value in series [5] is 2 µg/mL. For the same compound, the “MIC Ec” value in series [6] was greater than 32 µg/mL. Further, the “RBC HC10” value with human red blood cells was greater than 32 µg/mL. Further, the “MIC Ca” value in series [7] amounted to 16 µg/mL.

In the case of `O=C([O][Eu]([O]C(=O)c1ccccc1F)[O]C(=O)c1ccccc1F)c1ccccc1F.c1cnc2c(c1)ccc1cccnc12` [Eu-S6], the CC50 in series [1] worked out at 9.9 µM. Further, the “MIC Cn” value in series [2] came to 20 µM. For the same compound, the “MIC Ab” value in series [3] is greater than 20 µM. In series [4], the “MIC Pa” value was greater than 20 µM. In addition, in series [5], the “MIC MRSA (Sa)” value was greater than 20 µM. Further, the “MIC Ec” value in series [6] was greater than 20 µM. Further, the “RBC HC10” value in the series with human red blood cells was greater than 20 µM. The “MIC Ca” value in series [7] stood at 20 µM.

On to `O=C([O][Eu]([O]C(=O)c1ccc(F)cc1F)[O]C(=O)c1ccc(F)cc1F)c1ccc(F)cc1F.c1ccc(-c2ccnc3c2ccc2c(-c4ccccc4)ccnc23)cc1` [Eu-S2], for which the CC50 in series [1] worked out at 15.9 µM. Further, in series [2], the “MIC Cn” value is 0.625 µM. Besides, the “MIC Ab” value in series [3] is greater than 20 µM. Besides, the “MIC Pa” value in series [4] was greater than 20 µM. For the same compound, the “MIC MRSA (Sa)” value in series [5] amounted to 1.25 µM. Besides, the “MIC Ec” value in series [6] was greater than 20 µM. Also, the “RBC HC10” value in the series with human red blood cells was found to be 0.7 µM. Further, the “MIC Ca” value in series [7] is 10 µM.

In the case of `O=C([O][Eu]([O]C(=O)c1ccc(F)cc1F)[O]C(=O)c1ccc(F)cc1F)c1ccc(F)cc1F.c1cnc2c(c1)ccc1cccnc12` [Eu-S5], in series [1], the CC50 amounted to 13.6 µM. Besides, in series [2], the “MIC Cn” value was determined as 20 µM. Besides, in series [3], the “MIC Ab” value was greater than 20 µM. For the same compound, in series [4], the “MIC Pa” value was greater than 20 µM. Further, in series [5], the “MIC MRSA (Sa)” value is greater than 20 µM. Also, the “MIC Ec” value in series [6] is greater than 20 µM. Moreover, the “RBC HC10” value in the series on human red blood cells came out at 0.5 µM. In addition, the “MIC Ca” value in series [7] is greater than 20 µM.

As for `Cc1cccc2[n+]1[Au-]([Cl])([Cl])[n+]1c(C)cccc1C(C(C)(C)C)=C=C2c1ccccc1.[Cl-]` [Au-S12], the “HEK CC50” value in series [1] is greater than 32 µg/mL. The “MIC Cn” value in series [2] is on record as “<= 0.25 μg/mL”. In addition, in series [3], the “MIC Ab” value is greater than 32 µg/mL. Besides, in series [4], the “MIC Pa” value is greater than 32 µg/mL. Moreover, the “MIC MRSA (Sa)” value in series [5] is 16 µg/mL. Besides, the “MIC Ec” value in series [6] is greater than 32 µg/mL. For the same compound, the “RBC HC10” value in the series on human red blood cells is recorded as “<= 0.25 μg/mL”. For the same compound, the “MIC Ca” value in series [7] was determined as 4 µg/mL.

Take `O=[N+]([O-])[O-].[Ag+]` [AgNO3, reference compound]: in series [1], the “HEK CC50” value was greater than 32 µg/mL. Besides, in series [2], the “MIC Cn” value was found to be 0.25 µg/mL. Besides, the “MIC Ab” value in series [3] came out at 0.25 µg/mL. Further, the “MIC Pa” value in series [4] was 0.25 µg/mL. Moreover, the “MIC MRSA (Sa)” value in series [5] was found to be 2 µg/mL. Moreover, in series [6], the “MIC Ec” value amounted to 0.25 µg/mL. Further, the “RBC HC10” value with human red blood cells is 8.9 µg/mL. Moreover, the “MIC Ca” value in series [7] came to 0.25 µg/mL.
